Where two headings read alike, the source gives them in different places.
What was measured:
Epstein Barr virus (EBV) = assay: Antiviral screening against Epstein Barr virus; format: cell-based; details: human gammaherpesvirus 4; read-out: anti-EBV activity EC50
[1] = Inhibition of cell proliferation (cytotoxicity) in herpesvirus screening; format: cell-based, human; details: human, human foreskin fibroblast cells
Human Cytomegalovirus = assay: Semi-automated CPE-inhibition assay for HCMV in human foreskin fibroblast cells; format: cell-based; details: Human betaherpesvirus 5
Experimental: (§1) Additional antiviral testing was carried out to test the efficacy of compounds of the invention against human cytomegalovirus (HCMV) and another herpesvirus, Variecella Zoster Virus(VZV). The compounds tested were compound (1), the HCl salt of compound (1), Compounds 211, 43, 213 and 214.

Varicella Zoster Virus = assay: Plaque reduction assay for VZV (Ellen strain); format: cell-based; details: Human alphaherpesvirus 3
Experimental: as §1

In the case of C=C1CN(S(=O)(=O)c2ccc(C)cc2)CCCN(C(=O)OCC)CCCN(S(=O)(=O)c2ccc(C)cc2)C1 [Compound 213, 9-(Ethyloxycarbonyl)-3-methylene-1,5-ditosyl-1,5,9-triazacyclododecane], the EC50 (Epstein Barr virus (EBV)) is reported as 6.7 µM, the CC50 ([1]; inhibit cell proliferation by 50%, HCMV CPE-inhibition screen, read-out: Human Cytomegalovirus CC50) is reported as 167 µM and the CC50 ([1]; inhibit cell proliferation by 50%, VZV screen, read-out: Varicella Zoster Virus CC50) is reported as > 180 µM. For the same compound, the CC50 ([1]; with anti-EBV screen, read-out: CC50) was > 180 µM, the EC50 (Human Cytomegalovirus) was 3000 nM and the EC50 (Varicella Zoster Virus) was 170 µM.
